Tests used:
SB.mhdgc-1 = experiment: AC50 for growth inhibition (viability) (log10 M); higher = less potent; settings: SB.mhdgc-1 (hereditary c.1380delA CDH1 gastric cancer)
Procedure, shortened: (§1)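 Dosing used a pintool to add 23 nL compound in DMSO to 1536 wells, each with 500 hereditary or sporadic patient-derived gastric cancer cells, across 11 threefold dilutions starting at a final 46 μM. Viability after 48 h was measured by CellTiter-Glo luminescence on a ViewLux. The log half-maximal activity concentration derives from a four-parameter fit of that viability normalised to DMSO, limited to high-quality curve classes.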

SB.msgc-1 = experiment: as above; settings: SB.msgc-1 (sporadic gastric cancer)
Procedure, shortened: as §1

## CCC1=C2CN3C(=O)\C4=C(/C=C3/C2=NC5=CC=C(O)C=C15)[C@@](O)(CC)C(=O)OC4 [SN-38]
SB.mhdgc-1
  AC50 for growth inhibition (log10 M): -8.48
SB.msgc-1
  AC50 for growth inhibition (log10 M): -8.08

## CNC(=O)[C@H](CC/1=C/N=C\2/C=C\C\C=C12)NC(=O)[C@H](CC(C)C)CC(=O)NO [GM-6001]
SB.mhdgc-1
  AC50 for growth inhibition (log10 M): -6.68
SB.msgc-1
  AC50 for growth inhibition (log10 M): -5.58

## CCc1cnn2c(NCc3ccc[n+]([O-])c3)cc(N3CCCC[C@H]3CCO)nc12 [Dinaciclib]
SB.mhdgc-1
  AC50 for growth inhibition (log10 M): -8.03
SB.msgc-1
  AC50 for growth inhibition (log10 M): -7.88

## OC1=C(C=CC=C1)C2=CC=C(C=C2)C3=CSC4=C3C(=C(/C#N)C(=O)N4)/O
SB.mhdgc-1
  AC50 for growth inhibition (log10 M): -5.83
SB.msgc-1
  AC50 for growth inhibition (log10 M): -4.78

## O=C(NC1CC1)c1cccc(-c2ccc3c(NC(=O)C4CC4)n[nH]c3c2)c1
SB.mhdgc-1
  AC50 for growth inhibition (log10 M): -5.93
SB.msgc-1
  AC50 for growth inhibition (log10 M): -6.03

## OC[C@H]1O[C@H]([C@@H](F)[C@@H]1O)N2\C=C/C(=O)NC2=O
SB.mhdgc-1
  AC50 for growth inhibition (log10 M): -5.08
SB.msgc-1
  AC50 for growth inhibition (log10 M): -5.13

## COc1cc2ncnc(Nc3cccc(Br)c3)c2cc1OC
SB.mhdgc-1
  AC50 for growth inhibition (log10 M): -7.08
SB.msgc-1
  AC50 for growth inhibition (log10 M): -6.88

## Clc1cc(Cl)cc(CNc2ncncc2-c2ccc3c(c2)OCO3)c1
SB.mhdgc-1
  AC50 for growth inhibition (log10 M): -5.28
SB.msgc-1
  AC50 for growth inhibition (log10 M): -4.78

## CN(C)C(=O)c1ccc([S+](=O)([O-])c2ccc(NC(=O)[C@@](C)(O)C(F)(F)F)c(Cl)c2)cc1 [AZD-7545]
SB.mhdgc-1
  AC50 for growth inhibition (log10 M): -4.88
SB.msgc-1
  AC50 for growth inhibition (log10 M): -4.73

## COc1ccc2cc3[n+](cc2c1OC)CCc1cc2c(cc1-3)OCO2 [Berberine]
SB.mhdgc-1
  AC50 for growth inhibition (log10 M): -4.98
SB.msgc-1
  AC50 for growth inhibition (log10 M): -5.18

## COc1ccc(-c2nc(N3CCOCC3)c3sc(CN(C)c4ncc(C(=O)NO)cn4)cc3n2)cn1 [CUDC-907]
SB.mhdgc-1
  AC50 for growth inhibition (log10 M): -6.28
SB.msgc-1
  AC50 for growth inhibition (log10 M): -7.83

## N[S+](=O)([O-])c1cccc2c1C(=O)c1cccc(O)c1C2=O [LLL-12]
SB.mhdgc-1
  AC50 for growth inhibition (log10 M): -6.98
SB.msgc-1
  AC50 for growth inhibition (log10 M): -6.63

## COC[C@H](NC(=O)c1cnc(C)s1)C(=O)N[C@@H](COC)C(=O)N[C@@H](Cc1ccccc1)C(=O)[C@@]1(C)CO1 [Oprozomib]
SB.mhdgc-1
  AC50 for growth inhibition (log10 M): -6.93
SB.msgc-1
  AC50 for growth inhibition (log10 M): -6.93

## Cc1cn2c(-c3cn[nH]c3)cnc2c(Nc2ccc(C(=O)N3CCNCC3)cc2F)n1
SB.mhdgc-1
  AC50 for growth inhibition (log10 M): -4.98
SB.msgc-1
  AC50 for growth inhibition (log10 M): -4.83

## O=C1c2ccccc2-[n+]2ccc3c([nH]c4ccccc43)c21 [Fascaplysin]
SB.mhdgc-1
  AC50 for growth inhibition (log10 M): -5.93
SB.msgc-1
  AC50 for growth inhibition (log10 M): -6.18

## COc1cc(OC)c(/C=C/[S+](=O)([O-])Cc2ccc(OC)c(NCC(=O)[O][Na])c2)c(OC)c1
SB.mhdgc-1
  AC50 for growth inhibition (log10 M): -6.03
SB.msgc-1
  AC50 for growth inhibition (log10 M): -6.33

## COc1cccc2c1C(=O)c1c(O)c3c(c(O)c1C2=O)C[C@@](O)(C(C)=O)C[C@@H]3O[C@H]1C[C@H](N)[C@H](O)[C@H](C)O1 [Daunorubicin]
SB.mhdgc-1
  AC50 for growth inhibition (log10 M): -7.28
SB.msgc-1
  AC50 for growth inhibition (log10 M): -6.93

## CCn1cc(-c2ccnc3[nH]c(-c4cccc(CN(C)C)c4)cc23)c(-c2ccc(NC(=O)N(C)C)cc2)n1
SB.mhdgc-1
  AC50 for growth inhibition (log10 M): -5.38
SB.msgc-1
  AC50 for growth inhibition (log10 M): -4.73

## CN(Cc1cnc2nc(N)nc(N)c2n1)c1ccc(C(=O)N[C@@H](CCC(=O)O)C(=O)O)cc1 [Methotrexate]
SB.mhdgc-1
  AC50 for growth inhibition (log10 M): -6.68
SB.msgc-1
  AC50 for growth inhibition (log10 M): -7.48

## CO[C@@H]1[C@@H](O)[C@H](O)[C@@H](n2c3c(Cl)cccc3c3c4c(c5c6cccc(Cl)c6[nH]c5c32)C(=O)NC4=O)O[C@H]1CO [Rebeccamycin]
SB.mhdgc-1
  AC50 for growth inhibition (log10 M): -6.83
SB.msgc-1
  AC50 for growth inhibition (log10 M): -6.43

## Cc1ccc([S+](=O)([O-])N[C@@H](Cc2ccccc2)C(=O)CCl)cc1 [TPCK]
SB.mhdgc-1
  AC50 for growth inhibition (log10 M): -4.78
SB.msgc-1
  AC50 for growth inhibition (log10 M): -4.73

## O=C(NC[C@H](O)CO)c1ccncc1Nc1ccc(I)cc1F [Pimasertib]
SB.mhdgc-1
  AC50 for growth inhibition (log10 M): -4.73
SB.msgc-1
  AC50 for growth inhibition (log10 M): -6.38

## COc1ccc(-c2ccc3ncc4c(c3c2)n(-c2ccc(N3CCNCC3)c(C(F)(F)F)c2)c(=O)n4C)cn1 [NVP-BGT226]
SB.mhdgc-1
  AC50 for growth inhibition (log10 M): -6.58
SB.msgc-1
  AC50 for growth inhibition (log10 M): -5.58

## C#Cc1cccc(Nc2ncnc3cc(OC)c(OCCCCCCC(=O)NO)cc23)c1 [CUDC-101]
SB.mhdgc-1
  AC50 for growth inhibition (log10 M): -8.28
SB.msgc-1
  AC50 for growth inhibition (log10 M): -7.53

## Cc1cccc(Nc2nc(N[C@@H]3CCCC[C@@H]3N)ncc2C(N)=O)c1
SB.mhdgc-1
  AC50 for growth inhibition (log10 M): -4.73
SB.msgc-1
  AC50 for growth inhibition (log10 M): -4.63

## O=C(Nc1ncc(-c2cc(C(F)F)nn2-c2c(Cl)cccc2Cl)s1)C1CC1 [BMS-3]
SB.mhdgc-1
  AC50 for growth inhibition (log10 M): -6.13
SB.msgc-1
  AC50 for growth inhibition (log10 M): -6.18

## COc1ccccc1[C@H](c1cccc2ccccc12)[C@@](C)(C#N)C(=O)N1CCC(c2cccc(C(F)(F)F)c2)CC1
SB.mhdgc-1
  AC50 for growth inhibition (log10 M): -5.18
SB.msgc-1
  AC50 for growth inhibition (log10 M): -5.48

## CC[C@H](NC(=O)[C@H](C)NC)C(=O)N1C[C@@H](O)C[C@H]1Cc1c(-c2[nH]c3cc(F)ccc3c2C[C@@H]2C[C@H](O)CN2C(=O)[C@H](CC)NC(=O)[C@H](C)NC)[nH]c2cc(F)ccc12 [Birinapant]
SB.mhdgc-1
  AC50 for growth inhibition (log10 M): -6.23
SB.msgc-1
  AC50 for growth inhibition (log10 M): -5.53

## COC1=CC2=C(C=C1OC)[C@H]3[C@@H](CO2)OC4=C(C=CC5=C4\C=C/C(C)(C)O5)C3=O [Deguelin]
SB.mhdgc-1
  AC50 for growth inhibition (log10 M): -5.38
SB.msgc-1
  AC50 for growth inhibition (log10 M): -5.23

## CN1\C(=C(O)/C2=C(C=C(Cl)S2)[S+]1([O-])=O)C(=O)NC3=NC=CC=C3 [Lornoxicam]
SB.mhdgc-1
  AC50 for growth inhibition (log10 M): -5.88
SB.msgc-1
  AC50 for growth inhibition (log10 M): -5.43

## Cc1c(NC(=O)OC[C@@H]2COCCN2)cn2ncnc(Nc3ccc4c(cnn4Cc4cccc(F)c4)c3)c12 [AC-480]
SB.mhdgc-1
  AC50 for growth inhibition (log10 M): -6.53
SB.msgc-1
  AC50 for growth inhibition (log10 M): -6.68

## CC(=O)C\1=C(/C)C2=CN=C(NC3=CC=C(C=N3)N4CCNCC4)N=C2N(C5CCCC5)C1=O
SB.mhdgc-1
  AC50 for growth inhibition (log10 M): -4.93
SB.msgc-1
  AC50 for growth inhibition (log10 M): -4.73

## CCn1nnc2c(N3CCOCC3)nc(-c3ccc(NC(=O)Nc4ccc(C(=O)N5CCN(C)CC5)cc4)cc3)nc21 [PKI-402]
SB.mhdgc-1
  AC50 for growth inhibition (log10 M): -5.43
SB.msgc-1
  AC50 for growth inhibition (log10 M): -5.88

## C#CCC(Cc1cnc2nc(N)nc(N)c2n1)c1ccc(C(=O)N[C@@H](CCC(=O)O)C(=O)O)cc1 (stereo partly drawn) [Pralatrexate]
SB.mhdgc-1
  AC50 for growth inhibition (log10 M): -6.58
SB.msgc-1
  AC50 for growth inhibition (log10 M): -7.28

## COc1c(C)c2c(c(O)c1C/C=C(\C)CCC(=O)OCCN1CCOCC1)C(=O)OC2 [Mycophenolate mofetil]
SB.mhdgc-1
  AC50 for growth inhibition (log10 M): -5.88
SB.msgc-1
  AC50 for growth inhibition (log10 M): -5.03

## COC1=C(OCCCN2CCOCC2)C=C3N=CC=C(OC4=CC=C(C=C4F)\C5=C\N=C(\NC6=CC=C(F)C=C6)N(C)C5=O)C3=C1 [AMG-51]
SB.mhdgc-1
  AC50 for growth inhibition (log10 M): -5.03
SB.msgc-1
  AC50 for growth inhibition (log10 M): -4.73

## CNC(=O)c1ccc(Nc2cc(Nc3ccccc3[S+](=O)([O-])C(C)C)c3cc[nH]c3n2)nc1
SB.mhdgc-1
  AC50 for growth inhibition (log10 M): -4.78
SB.msgc-1
  AC50 for growth inhibition (log10 M): -4.68

## CC1(C)CCC(=C(CN2CCN(CC2)C3=CC=C(C=C3)C(=O)N[S+]([O-])(=O)C4=CC(=C(N[C@H](CCN5CCOCC5)CSC6=CC=CC=C6)C=C4)[S+]([O-])(=O)C(F)(F)F)\C1)/C7=CC=C(Cl)C=C7 [Navitoclax]
SB.mhdgc-1
  AC50 for growth inhibition (log10 M): -6.13
SB.msgc-1
  AC50 for growth inhibition (log10 M): -5.13

## C[C@]12CC[C@H]3[C@@H](CC[C@H]4NC(=O)\C=C/[C@]34C)[C@@H]1CC[C@@H]2C(=O)NC5=CC(=CC=C5C(F)(F)F)C(F)(F)F [Dutasteride]
SB.mhdgc-1
  AC50 for growth inhibition (log10 M): -4.78
SB.msgc-1
  AC50 for growth inhibition (log10 M): -4.93

## Nc1nc(F)nc2c1ncn2[C@@H]1O[C@H](COP(=O)(O)O)[C@@H](O)[C@@H]1O [Fludarabine phosphate]
SB.mhdgc-1
  AC50 for growth inhibition (log10 M): -5.13
SB.msgc-1
  AC50 for growth inhibition (log10 M): -4.98

## Cc1cnc(Nc2ccc(N3CCN(C)CC3)cc2)nc1Nc1cccc([S+](=O)([O-])NC(C)(C)C)c1
SB.mhdgc-1
  AC50 for growth inhibition (log10 M): -5.33
SB.msgc-1
  AC50 for growth inhibition (log10 M): -4.98

## CNC(=O)c1cccc(-c2ccc3c(N4CCOC[C@@H]4C)nc(N4CCOC[C@@H]4C)nc3n2)c1 [AZD-2014]
SB.mhdgc-1
  AC50 for growth inhibition (log10 M): -7.33
SB.msgc-1
  AC50 for growth inhibition (log10 M): -7.03

## CCc1ccc(OCc2ccccc2C(=O)Nc2ccc3nc(C)cc(N)c3c2)cc1 [JTC-801]
SB.mhdgc-1
  AC50 for growth inhibition (log10 M): -5.43
SB.msgc-1
  AC50 for growth inhibition (log10 M): -4.98

## COc1cc(F)c(C(C)C)cc1-c1ccc(C(F)(F)F)cc1CN1C(=O)O[C@H](c2cc(C(F)(F)F)cc(C(F)(F)F)c2)[C@@H]1C [Anacetrapib]
SB.mhdgc-1
  AC50 for growth inhibition (log10 M): -5.13
SB.msgc-1
  AC50 for growth inhibition (log10 M): -5.48

## COc1cccc2c1C(=O)c1c(O)c3c(c(O)c1C2=O)C[C@@](O)(C(=O)CO)C[C@@H]3O[C@H]1C[C@H](N)[C@H](O[C@H]2CCCCO2)[C@H](C)O1 [Pirarubicin]
SB.mhdgc-1
  AC50 for growth inhibition (log10 M): -6.08
SB.msgc-1
  AC50 for growth inhibition (log10 M): -5.68

## CCOC(=O)[C@H](CCc1ccccc1)N[C@H]1CS[C@H](c2cccs2)CN(CC(=O)O)C1=O.Cl [Temocapril hydrochloride]
SB.mhdgc-1
  AC50 for growth inhibition (log10 M): -6.28
SB.msgc-1
  AC50 for growth inhibition (log10 M): -5.88

## COc1cccc2c(NCc3ccccc3)nc(-n3c(N)nc4ccccc43)nc12
SB.mhdgc-1
  AC50 for growth inhibition (log10 M): -5.13
SB.msgc-1
  AC50 for growth inhibition (log10 M): -5.08

## CC(=O)N1CCN(c2ccc(OCc3nn(C)c(C)c3-c3cccc4c(CCCOc5cccc6ccccc56)c(C(=O)O)n(Cc5cccnc5)c34)cc2)CC1
SB.mhdgc-1
  AC50 for growth inhibition (log10 M): -5.63
SB.msgc-1
  AC50 for growth inhibition (log10 M): -5.63

## COc1cc(C)c(Sc2cnc(NC(=O)c3ccc(CNC(C)C(C)(C)C)cc3)s2)cc1C(=O)N1CCN(C(C)=O)CC1 (stereo not drawn)
SB.mhdgc-1
  AC50 for growth inhibition (log10 M): -4.98
SB.msgc-1
  AC50 for growth inhibition (log10 M): -4.98

From the supplement of paper PMC5412046
